US7423020B2, “Treatment of mood disorders by administration of SMR1” (Institut Pasteur, priority 2001, dated 2008)
Where “and” joins values, the source holds several entries; their conditions need not be identical. Equal values may be shown once. Entries after “also recorded” stand apart in the source; their conditions may differ. Where a SMILES comes first, the peptide text is derived from it.

Assays:
[1] = Tissue uptake of SMR1-Pentapeptide in vivo; design: species or system rat
[2] = target: T1, purified rabbit kidney NEP (Oryctolagus cuniculus, UniProt P08049); assay: Direct interaction with purified rabbit kidney NEP in vitro; type: binding
T1 construct: using purified rabbit kidney NEP; from tissue; host or cells: rabbit kidney
T1 sequence (P08049 1-750): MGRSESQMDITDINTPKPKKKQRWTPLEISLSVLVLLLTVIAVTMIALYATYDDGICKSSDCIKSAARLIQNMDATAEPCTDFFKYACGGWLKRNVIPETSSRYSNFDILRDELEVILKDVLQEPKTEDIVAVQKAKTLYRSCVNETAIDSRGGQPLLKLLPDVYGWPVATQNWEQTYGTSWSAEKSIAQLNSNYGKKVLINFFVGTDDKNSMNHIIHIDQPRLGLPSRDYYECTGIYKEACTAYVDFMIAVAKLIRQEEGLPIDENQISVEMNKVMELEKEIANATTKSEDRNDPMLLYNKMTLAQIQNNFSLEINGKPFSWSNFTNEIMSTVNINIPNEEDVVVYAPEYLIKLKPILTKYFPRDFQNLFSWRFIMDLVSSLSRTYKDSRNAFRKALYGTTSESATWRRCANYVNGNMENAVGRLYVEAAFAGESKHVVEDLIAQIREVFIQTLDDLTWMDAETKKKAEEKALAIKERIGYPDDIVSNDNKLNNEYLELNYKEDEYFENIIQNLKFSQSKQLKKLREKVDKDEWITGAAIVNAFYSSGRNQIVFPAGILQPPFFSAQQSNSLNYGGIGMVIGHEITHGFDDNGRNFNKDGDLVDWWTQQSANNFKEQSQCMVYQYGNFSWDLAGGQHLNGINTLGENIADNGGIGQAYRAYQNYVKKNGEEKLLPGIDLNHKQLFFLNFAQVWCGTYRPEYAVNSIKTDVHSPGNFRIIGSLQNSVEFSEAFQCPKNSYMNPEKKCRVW

[3] = target: T2, NEP (Rattus norvegicus, UniProt P07861); assay: 3H-Substance P hydrolysis by rat spinal cord membrane preparations; type: biochemical
T2 construct: incubations of membrane and fresh tissue slice preparations from nervous tissues; from tissue; host or cells: rat spinal cord (dorsal zone), fresh slices or 100 000 x g membrane fraction
T2 sequence (P07861 1-750): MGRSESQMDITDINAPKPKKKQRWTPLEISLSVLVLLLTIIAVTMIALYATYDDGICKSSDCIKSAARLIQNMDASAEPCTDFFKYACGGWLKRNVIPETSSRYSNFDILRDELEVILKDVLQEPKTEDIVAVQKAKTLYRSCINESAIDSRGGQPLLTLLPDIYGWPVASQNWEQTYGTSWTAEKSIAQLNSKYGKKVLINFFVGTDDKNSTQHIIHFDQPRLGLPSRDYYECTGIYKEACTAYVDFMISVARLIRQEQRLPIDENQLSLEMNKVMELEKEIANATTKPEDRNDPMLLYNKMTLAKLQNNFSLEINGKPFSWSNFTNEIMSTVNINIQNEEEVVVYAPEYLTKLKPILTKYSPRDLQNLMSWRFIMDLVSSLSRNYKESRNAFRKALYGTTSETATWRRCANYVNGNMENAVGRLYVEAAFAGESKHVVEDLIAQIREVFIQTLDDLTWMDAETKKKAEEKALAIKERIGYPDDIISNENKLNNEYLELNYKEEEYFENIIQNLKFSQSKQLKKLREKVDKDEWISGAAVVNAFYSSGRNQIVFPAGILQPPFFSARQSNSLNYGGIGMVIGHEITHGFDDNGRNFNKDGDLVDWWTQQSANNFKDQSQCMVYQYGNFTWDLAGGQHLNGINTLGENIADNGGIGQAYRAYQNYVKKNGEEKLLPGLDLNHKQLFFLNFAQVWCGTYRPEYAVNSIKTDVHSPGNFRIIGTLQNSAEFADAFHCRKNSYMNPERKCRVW
Experimental: The organs dissected out and washed in ice-cold KRBG are homogenized at 4° C. in 10 volumes (vol./wt.) of 50 mM Tris/HCl buffered at pH 7.2, using a Teflon-glass homogenizer (3×5 sec.). A first centrifugation of 5 min. at 1000×g and 4° C. makes it possible to remove the tissular debris and the nuclei in the pellet. A second centrifugation of the supernatant at 100 000×g and 5° C. concentrates the membrane fraction into the pellet, which will be superficially washed three times with cold Tris/HCl buffer and resuspended in fresh buffer using a Kontes homogenizer, aliquoted and stored at -80° C. while waiting to be used as enzyme source, at least until three months. For the experiments of analysis of the NEP peptidase activity, an ex vivo model using incubations of membrane and fresh tissue slice preparations from nervous tissues that are known to be appropriate for exploring NEP peptidase activity: i.e. the dorsal zone of rat spinal cord, was first developed. The metabolism rate of the NEP-sensitive peptides was measured using the both NEP substrates involved in the signaling of the nociceptive response: the neuropeptides Met-enkephalin and Substance P. […] (NEN, 12.5-25 nM) were used. The objective was to measure the NEP-specific endoproteolysis of these substrates. […] The radioactivity of eluted and isolated compounds is determined by liquid scintillation spectrometry.

[4] = target: T2, NEP; assay: Met-enkephalin degradation by rat spinal cord slices, RIA assay; type: biochemical; conditions: 10 μM; fresh spinal cord slices; 20 min at 25° C.; 10 μM Met-enkephalin
Experimental: For the experiments of analysis of the NEP peptidase activity, an ex vivo model using incubations of membrane and fresh tissue slice preparations from nervous tissues that are known to be appropriate for exploring NEP peptidase activity: i.e. the dorsal zone of rat spinal cord, was first developed. […] (NEN, 12.5-25 nM) were used.
The objective was to measure the NEP-specific endoproteolysis of these substrates.

[5] = test system: adult male rats; conditions: PCT patent application WO 01/00 221; cited from earlier work

IC50 ([3]; 3H-Substance P 12.5 nM, 10 min at 25° C., read-out: IC50 (concentration reducing by half the degradation of 3H-substance P) (converted)): ~100 nM and 100 nM
protection of Met-enkephalin from degradation (RIA) [4]: 96%
SMILES: N=C(N)NCCC[C@H](NC(=O)[C@@H]1CCCN1C(=O)[C@H](CC(N)=O)NC(=O)[C@H](Cc1c[nH]cn1)NC(=O)[C@@H](N)CCC(N)=O)C(=O)O [SMR1-QHNPR, QHNPR] (H-QHNPR-OH; N-terminus and C-terminus assumed)
stability of tissue uptake [1]: pharmacokinetically and biochemically stable in vivo
direct interaction with NEP [2]: direct interaction of rat kidney NEP and SMR1-Pentapeptide was demonstrated
protection of Substance P / NEP inhibitory potency compared with reference inhibitors ([3]; FIG. 3-B): equivalent to that obtained with Phosphoramidon; also recorded: equivalent to that of two well-known NEP-specific inhibitors, Thiorphan and Phosphoramidon
effect on sexual behavior and aggressive impulse behavior [5]: dose-dependent improvement on the sexual behavior of adult male rats with a loss of the aggressive impulse behavior
